# Assay results reported in PubChem BioAssay (NCI).
#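 Following 48 hours of exposure in 96-well plates, responses at five concentrations were used to interpolate endpoints linearly. At the GI50, growth is halved. TGI: total growth inhibition.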
# What was measured:
# Assay in all cases: inhibition of tumour cell growth, NCI panel, 48 h
# EKVX NSCLC = test system: EKVX NSCLC
# HCC-2998 colon = test system: HCC-2998 colon
# HCT-116 colon = test system: HCT-116 colon
# K-562 leukemia = test system: K-562 leukemia
# MOLT-4 leukemia = test system: MOLT-4 leukemia
# NCI-H226 lung = test system: NCI-H226 lung
# SK-OV-3 ovarian = test system: SK-OV-3 ovarian
# SNB-19 CNS = test system: SNB-19 CNS
# SW-620 colon = test system: SW-620 colon
# RXF 393 renal = test system: RXF 393 renal
compound,measurement,setting,value
Cc1ccc(C(=O)c2nnc(C(=O)c3ccc(C)cc3)nn2)cc1,TGI,EKVX NSCLC,> 100 µM
same,TGI,HCC-2998 colon,> 100 µM
same,TGI,HCT-116 colon,> 100 µM
same,TGI,K-562 leukemia,55.8 µM
same,TGI,MOLT-4 leukemia,> 100 µM
same,TGI,NCI-H226 lung,> 100 µM
same,TGI,SK-OV-3 ovarian,36.8 µM
same,TGI,SNB-19 CNS,> 100 µM
same,TGI,SW-620 colon,44.1 µM
COc1cccc2c1c(C(=O)C(=O)Nc1cc(C)no1)cn2Cc1ccc(F)cc1,GI50,EKVX NSCLC,32.6 µM
same,TGI,EKVX NSCLC,> 100 µM
same,GI50,HCC-2998 colon,37 µM
same,TGI,HCC-2998 colon,> 100 µM
same,GI50,HCT-116 colon,5.58 µM
same,TGI,HCT-116 colon,> 64.1 µM
same,GI50,K-562 leukemia,1.91 µM
same,TGI,K-562 leukemia,> 36.5 µM
same,GI50,MOLT-4 leukemia,3.99 µM
same,TGI,MOLT-4 leukemia,> 60.7 µM
same,GI50,NCI-H226 lung,36.2 µM
same,TGI,NCI-H226 lung,> 100 µM
same,GI50,SK-OV-3 ovarian,31.4 µM
same,TGI,SK-OV-3 ovarian,> 100 µM
same,GI50,SNB-19 CNS,10.1 µM
same,TGI,SNB-19 CNS,> 100 µM
same,GI50,SW-620 colon,3.68 µM
same,TGI,SW-620 colon,> 100 µM
CC1SC2=NC3=C(c4ccccc4C3=O)C(c3ccc(F)cc3)N2C1=O (stereo unspecified),TGI,EKVX NSCLC,> 100 µM
same,TGI,HCC-2998 colon,> 100 µM
same,TGI,HCT-116 colon,> 100 µM
same,TGI,K-562 leukemia,> 100 µM
same,TGI,MOLT-4 leukemia,> 100 µM
same,TGI,NCI-H226 lung,> 100 µM
same,TGI,SK-OV-3 ovarian,> 100 µM
same,TGI,SNB-19 CNS,> 100 µM
same,TGI,SW-620 colon,> 100 µM
Oc1cccc2ccc(N/N=C/c3cc(CN4CCCCC4)c(O)c4ncccc34)nc12,GI50,EKVX NSCLC,0.299 µM
same,TGI,EKVX NSCLC,14.7 µM
same,GI50,HCC-2998 colon,0.0499 µM
same,TGI,HCC-2998 colon,1.76 µM
same,GI50,HCT-116 colon,0.0426 µM
same,TGI,HCT-116 colon,1.71 µM
same,GI50,K-562 leukemia,0.0383 µM
same,TGI,K-562 leukemia,11.1 µM
same,GI50,MOLT-4 leukemia,0.0597 µM
same,TGI,MOLT-4 leukemia,3.82 µM
same,GI50,NCI-H226 lung,0.41 µM
same,TGI,NCI-H226 lung,2.9 µM
same,GI50,SK-OV-3 ovarian,0.0435 µM
same,TGI,SK-OV-3 ovarian,0.653 µM
same,GI50,SNB-19 CNS,0.0413 µM
same,TGI,SNB-19 CNS,18.7 µM
same,GI50,SW-620 colon,0.0362 µM
same,TGI,SW-620 colon,3.52 µM
COc1cc(/C=C/c2cc(O)c3cc(C(C)=O)c(=O)oc3c2)cc2c1O[C@]1(C)CC[C@@H](O)C(C)(C)[C@H]1C2,GI50,EKVX NSCLC,> 32.5 µM
same,TGI,EKVX NSCLC,> 64.1 µM
same,GI50,HCC-2998 colon,> 28.2 µM
same,TGI,HCC-2998 colon,> 48.7 µM
same,GI50,HCT-116 colon,> 19.7 µM
same,TGI,HCT-116 colon,> 52.3 µM
same,TGI,K-562 leukemia,> 100 µM
same,TGI,MOLT-4 leukemia,> 26.4 µM
same,GI50,NCI-H226 lung,> 23.7 µM
same,TGI,NCI-H226 lung,> 64.9 µM
same,GI50,SK-OV-3 ovarian,> 20.6 µM
same,TGI,SK-OV-3 ovarian,> 64 µM
same,GI50,SNB-19 CNS,> 21.9 µM
same,TGI,SNB-19 CNS,> 95.4 µM
same,TGI,SW-620 colon,> 34.7 µM
COc1ccc(OC)c(/C=C2\SC(=S)NC2=O)c1,GI50,EKVX NSCLC,14.2 µM
same,TGI,EKVX NSCLC,42.1 µM
same,GI50,HCT-116 colon,29.9 µM
same,TGI,HCT-116 colon,> 100 µM
same,GI50,K-562 leukemia,42.5 µM
same,TGI,K-562 leukemia,> 100 µM
same,GI50,MOLT-4 leukemia,44.8 µM
same,TGI,MOLT-4 leukemia,> 100 µM
same,GI50,RXF 393 renal,18.4 µM
same,TGI,RXF 393 renal,64.8 µM
same,GI50,SK-OV-3 ovarian,33.1 µM
same,TGI,SK-OV-3 ovarian,> 100 µM
same,GI50,SNB-19 CNS,79.8 µM
same,TGI,SNB-19 CNS,> 100 µM
same,GI50,SW-620 colon,60.2 µM
same,TGI,SW-620 colon,> 100 µM
COc1cc(OC(C)=O)cc2c(OC(C)=O)ccc(OC(C)=O)c12,TGI,EKVX NSCLC,> 100 µM
same,TGI,HCT-116 colon,> 100 µM
same,TGI,K-562 leukemia,> 100 µM
same,TGI,MOLT-4 leukemia,> 100 µM
same,TGI,RXF 393 renal,> 100 µM
same,TGI,SNB-19 CNS,> 100 µM
same,TGI,SW-620 colon,> 100 µM
COC(C(=O)[O][Ge]([CH3])([CH3])[CH3])c1ccccc1 (stereo unspecified),GI50,EKVX NSCLC,> 100 µM
same,TGI,EKVX NSCLC,> 100 µM
same,GI50,HCC-2998 colon,> 100 µM
same,TGI,HCC-2998 colon,> 100 µM
same,GI50,HCT-116 colon,> 100 µM
same,TGI,HCT-116 colon,> 100 µM
same,GI50,MOLT-4 leukemia,> 100 µM
same,TGI,MOLT-4 leukemia,> 100 µM
same,GI50,RXF 393 renal,> 100 µM
same,TGI,RXF 393 renal,> 100 µM
same,GI50,SK-OV-3 ovarian,> 100 µM
same,TGI,SK-OV-3 ovarian,> 100 µM
same,GI50,SNB-19 CNS,> 100 µM
same,TGI,SNB-19 CNS,> 100 µM
same,GI50,SW-620 colon,> 100 µM
same,TGI,SW-620 colon,> 100 µM
CCN(CC)c1ccc(C(=O)c2ccccc2C(=O)O)c(O)c1,TGI,EKVX NSCLC,> 100 µM
same,TGI,HCT-116 colon,> 100 µM
same,TGI,K-562 leukemia,> 100 µM
same,TGI,MOLT-4 leukemia,> 100 µM
same,TGI,RXF 393 renal,> 100 µM
same,TGI,SK-OV-3 ovarian,> 100 µM
same,TGI,SNB-19 CNS,> 100 µM
same,TGI,SW-620 colon,> 100 µM
COc1ccc(-c2ccc(/C=N/n3c(COc4ccc(Cl)cc4Cl)nn(CN4CCOCC4)c3=S)o2)c([N+](=O)[O-])c1,GI50,EKVX NSCLC,> 100 µM
same,TGI,EKVX NSCLC,> 100 µM
same,GI50,HCC-2998 colon,22.7 µM
same,TGI,HCC-2998 colon,60.2 µM
same,GI50,HCT-116 colon,16.5 µM
same,TGI,HCT-116 colon,30.1 µM
same,GI50,K-562 leukemia,18.2 µM
same,TGI,K-562 leukemia,46.6 µM
same,GI50,MOLT-4 leukemia,19.4 µM
same,TGI,MOLT-4 leukemia,63.3 µM
same,GI50,RXF 393 renal,24.3 µM
same,TGI,RXF 393 renal,88.9 µM
same,GI50,SK-OV-3 ovarian,10.8 µM
same,TGI,SK-OV-3 ovarian,52.1 µM
same,GI50,SNB-19 CNS,28.7 µM
same,TGI,SNB-19 CNS,> 100 µM
CC1=C(Oc2ccccc2)C(CCC(=O)O)c2c(O)cc(Cl)c(O)c21 (stereo unspecified),TGI,EKVX NSCLC,> 100 µM
same,TGI,HCC-2998 colon,> 100 µM
same,TGI,HCT-116 colon,> 100 µM
same,TGI,K-562 leukemia,> 100 µM
same,TGI,MOLT-4 leukemia,> 100 µM
same,TGI,RXF 393 renal,> 100 µM
same,TGI,SNB-19 CNS,> 100 µM
same,TGI,SW-620 colon,> 100 µM
CC(=O)OCC1OC(OC2C(CSC3OC(COC(C)=O)C(OC(C)=O)C(OC(C)=O)C3OC(C)=O)OC(OC(C)=O)C(OC(C)=O)C2OC(C)=O)C(OC(C)=O)C(OC(C)=O)C1OC(C)=O (stereo unspecified),TGI,EKVX NSCLC,> 100 µM
same,TGI,HCC-2998 colon,> 100 µM
same,TGI,HCT-116 colon,> 100 µM
same,TGI,K-562 leukemia,> 100 µM
same,TGI,MOLT-4 leukemia,> 100 µM
same,TGI,NCI-H226 lung,> 100 µM
same,TGI,SK-OV-3 ovarian,> 100 µM
same,TGI,SNB-19 CNS,> 100 µM
same,TGI,SW-620 colon,> 100 µM
COc1ccc(-c2n/c(=C\c3c(O)[nH]c4ccc(OC)cc34)cc3c2=Nc2ccccc2-3)cc1,GI50,EKVX NSCLC,21.2 µM
same,TGI,EKVX NSCLC,72.9 µM
same,GI50,HCC-2998 colon,2.93 µM
same,TGI,HCC-2998 colon,10.1 µM
same,GI50,HCT-116 colon,1.85 µM
same,TGI,HCT-116 colon,3.33 µM
same,GI50,MOLT-4 leukemia,2.41 µM
same,TGI,MOLT-4 leukemia,5.27 µM
same,GI50,SK-OV-3 ovarian,22.5 µM
same,TGI,SK-OV-3 ovarian,46.6 µM
same,GI50,SNB-19 CNS,3.88 µM
same,TGI,SNB-19 CNS,> 100 µM
same,GI50,SW-620 colon,2.4 µM
same,TGI,SW-620 colon,6.9 µM
O=C(CN1CCOCC1)Nc1nc(-c2ccc(Cl)cc2)cs1,TGI,EKVX NSCLC,> 100 µM
same,TGI,HCC-2998 colon,> 100 µM
same,TGI,K-562 leukemia,94.5 µM
same,TGI,MOLT-4 leukemia,42.6 µM
same,TGI,NCI-H226 lung,60.9 µM
same,TGI,SK-OV-3 ovarian,> 100 µM
same,TGI,SNB-19 CNS,> 100 µM
same,TGI,SW-620 colon,> 100 µM
